These are literature values, as cited in patent US8076449B2, “Therapeutic agents of colivelin for neurodegenerative diseases” (Tomohiro Chiba, priority 2004, dated 2011).

Series [1] concerns primary cultured cortical neurons treated with Aβ (1-43). The note with it: Aβ (1-43) neurotoxicity; stated as known fact; cited from earlier work.
In series [2] the test system is F11 cells transformed with M146L-PS1. Conditions: as already reported; cited from earlier work.

As to “HNG: Humanin (HN) derivative whose serine residue at the position 14 is replaced by glycine (MAPRGFSCLLLLTGEIDLPVKRRA; Humanin; UniProt Q8IVG9 1-24, looked up, variant S14G)”, in series [1], the “concentration exerting complete protective action” value was 10 nM. Besides, the “concentration completely suppressing cell death caused by M146L-PS1” value in series [2] is given as 100 nM.
